Tests used:
Assay in all cases: KINOMEscan kinase binding assay (Eurofins/DiscoveRx), % Ctrl
kinases [1] = target: T1, kinases (Homo sapiens, UniProt P00533, G719C)
T1 construct: purchased Eurofins/DiscoveRx; host or cells: E. coli BL21-derived host (T7 phage display) for most kinases; HEK-293 for the rest
How it was run: (§1)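 Competition binding, 1 h RT: phage-tagged or HEK-293-expressed DNA-tagged kinase + immobilized ligand + compound. Eluate kinase by qPCR. % Ctrl = (test − positive ctrl)/(negative ctrl − positive ctrl) × 100; lower means stronger binding.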

kinases [2] = target: T2, kinases (Homo sapiens, UniProt P00519, T315I)
T2 construct: purchased Eurofins/DiscoveRx; host or cells: E. coli BL21-derived host (T7 phage display) for most kinases; HEK-293 for the rest
How it was run: as §1

kinases [3] = tested on: kinases
How it was run: as §1

kinases [4] = target: T3, kinases (Homo sapiens, UniProt P00519, Q252H)
T3 construct: purchased Eurofins/DiscoveRx; host or cells: E. coli BL21-derived host (T7 phage display) for most kinases; HEK-293 for the rest
How it was run: as §1

kinases [5] = target: T4, kinases (Homo sapiens, UniProt P10721, T670I/V559D)
T4 construct: purchased Eurofins/DiscoveRx; host or cells: E. coli BL21-derived host (T7 phage display) for most kinases; HEK-293 for the rest
T4 sequence (P10721 26-976 V559D/T670I): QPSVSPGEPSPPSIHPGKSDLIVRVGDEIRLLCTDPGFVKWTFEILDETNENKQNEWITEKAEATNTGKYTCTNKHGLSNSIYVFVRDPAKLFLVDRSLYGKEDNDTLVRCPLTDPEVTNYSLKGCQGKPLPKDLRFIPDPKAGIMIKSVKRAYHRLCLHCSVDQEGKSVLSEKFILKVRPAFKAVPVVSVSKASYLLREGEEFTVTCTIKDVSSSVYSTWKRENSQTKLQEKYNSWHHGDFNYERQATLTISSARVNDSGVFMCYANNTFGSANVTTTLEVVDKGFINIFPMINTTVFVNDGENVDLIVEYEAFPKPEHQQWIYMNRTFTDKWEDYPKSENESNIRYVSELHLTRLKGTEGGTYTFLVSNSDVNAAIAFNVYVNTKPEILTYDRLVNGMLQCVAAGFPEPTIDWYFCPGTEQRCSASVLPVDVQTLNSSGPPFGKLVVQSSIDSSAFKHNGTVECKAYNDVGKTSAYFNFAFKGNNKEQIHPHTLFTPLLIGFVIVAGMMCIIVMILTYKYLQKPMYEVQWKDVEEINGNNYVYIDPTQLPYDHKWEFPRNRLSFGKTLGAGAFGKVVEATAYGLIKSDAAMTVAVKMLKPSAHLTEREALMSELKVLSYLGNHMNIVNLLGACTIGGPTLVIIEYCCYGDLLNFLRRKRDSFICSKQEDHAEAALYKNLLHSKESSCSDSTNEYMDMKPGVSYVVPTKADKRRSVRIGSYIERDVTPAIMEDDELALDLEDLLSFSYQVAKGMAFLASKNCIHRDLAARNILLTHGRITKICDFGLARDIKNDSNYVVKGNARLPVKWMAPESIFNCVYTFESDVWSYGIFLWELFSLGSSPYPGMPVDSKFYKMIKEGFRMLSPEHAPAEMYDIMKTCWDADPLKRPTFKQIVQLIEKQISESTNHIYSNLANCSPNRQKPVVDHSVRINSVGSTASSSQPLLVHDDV
How it was run: as §1

kinases [6] = target: T5, kinases (Homo sapiens, UniProt P36888, N841I)
T5 construct: purchased Eurofins/DiscoveRx; host or cells: E. coli BL21-derived host (T7 phage display) for most kinases; HEK-293 for the rest
T5 sequence (P36888 27-993 N841I): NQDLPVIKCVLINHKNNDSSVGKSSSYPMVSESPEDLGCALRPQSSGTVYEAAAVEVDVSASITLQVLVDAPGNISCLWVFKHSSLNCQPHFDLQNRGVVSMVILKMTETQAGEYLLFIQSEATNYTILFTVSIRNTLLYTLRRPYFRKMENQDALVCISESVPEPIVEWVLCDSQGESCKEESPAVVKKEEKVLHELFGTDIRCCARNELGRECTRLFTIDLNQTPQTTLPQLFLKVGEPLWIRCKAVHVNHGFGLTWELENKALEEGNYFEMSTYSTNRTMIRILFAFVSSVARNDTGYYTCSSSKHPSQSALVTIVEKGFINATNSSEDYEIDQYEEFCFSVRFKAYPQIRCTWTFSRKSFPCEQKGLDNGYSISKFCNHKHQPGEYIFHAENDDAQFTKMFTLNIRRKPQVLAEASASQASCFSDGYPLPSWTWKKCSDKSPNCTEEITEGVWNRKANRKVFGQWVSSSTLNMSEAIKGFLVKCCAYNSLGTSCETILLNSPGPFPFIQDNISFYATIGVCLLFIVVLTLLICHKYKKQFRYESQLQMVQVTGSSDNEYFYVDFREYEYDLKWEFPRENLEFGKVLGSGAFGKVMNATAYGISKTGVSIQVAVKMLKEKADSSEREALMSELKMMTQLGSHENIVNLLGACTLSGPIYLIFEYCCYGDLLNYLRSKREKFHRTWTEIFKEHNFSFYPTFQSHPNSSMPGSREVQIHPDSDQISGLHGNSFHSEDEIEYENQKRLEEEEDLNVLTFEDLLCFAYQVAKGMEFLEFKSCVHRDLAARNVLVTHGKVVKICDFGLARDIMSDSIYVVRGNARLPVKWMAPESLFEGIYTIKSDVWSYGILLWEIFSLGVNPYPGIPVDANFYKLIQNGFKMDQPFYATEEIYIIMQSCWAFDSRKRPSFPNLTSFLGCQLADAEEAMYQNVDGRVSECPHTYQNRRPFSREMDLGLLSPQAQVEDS
How it was run: as §1

kinases [7] = target: T6, kinases (Homo sapiens, UniProt P10721)
T6 construct: purchased Eurofins/DiscoveRx; host or cells: E. coli BL21-derived host (T7 phage display) for most kinases; HEK-293 for the rest
T6 sequence (P10721 26-976): as the sequence (P10721 26-976 V559D/T670I) above, with D534V, I645T counted along it
How it was run: as §1

[8] = target ABL1(T315I)-nonphosphorylated; 1 μM
[9] = target ABL1(T315I)-phosphorylated; 1 μM
[10] = target EGFR(L747-E749del, A750P); 1 μM
[11] = target EGFR(L747-S752del, P753S); 1 μM
[12] = target EGFR(L747-T751del, Sins); 1 μM
[13] = target ABL1(Q252H)-nonphosphorylated; 1 μM
[14] = target ABL1(Q252H)-phosphorylated; 1 μM
[15] = 1 μM; ABL1(T315I)-nonphosphorylated
[16] = 1 μM; ABL1(T315I)-phosphorylated
[17] = 1 μM; EGFR(L747-E749del, A750P)
[18] = 1 μM; EGFR(L747-S752del, P753S)
[19] = 1 μM; ABL1(Q252H)-nonphosphorylated
[20] = 1 μM; ABL1(Q252H)-phosphorylated

Row | % Ctrl, EGFR(G719C) (kinases [1]; target EGFR(G719C); 1 μM) | % Ctrl, ABL1(T315I)-nonphosphorylated (kinases [2]; [8]) | % Ctrl, ABL1(T315I)-phosphorylated (kinases [2]; [9]) | % Ctrl, EGFR(L747-E749del, A750P) (kinases [3]; [10]) | % Ctrl, EGFR(L747-S752del, P753S) (kinases [3]; [11]) | % Ctrl, EGFR(G719C) (kinases [1]; 1 μM; EGFR(G719C)) | % Ctrl, ABL1(T315I)-nonphosphorylated (kinases [2]; [15]) | % Ctrl, ABL1(T315I)-phosphorylated (kinases [2]; [16]) | % Ctrl, EGFR(L747-E749del, A750P) (kinases [3]; [17]) | % Ctrl, EGFR(L747-S752del, P753S) (kinases [3]; [18]) | % Ctrl, EGFR(L747-T751del, Sins) (kinases [3]; 1 μM; EGFR(L747-T751del, Sins)) | % Ctrl, FLT3(ITD) (kinases [3]; 1 μM; FLT3(ITD)) | % Ctrl, FLT3(ITD, D835V) (kinases [3]; 1 μM; FLT3(ITD, D835V)) | % Ctrl, FLT3(ITD, F691L) (kinases [3]; 1 μM; FLT3(ITD, F691L)) | % Ctrl, ABL1(Q252H)-nonphosphorylated (kinases [4]; [19]) | % Ctrl, ABL1(Q252H)-phosphorylated (kinases [4]; [20]) | % Ctrl, KIT(V559D, T670I) (kinases [5]; 1 μM; KIT(V559D, T670I)) | % Ctrl, FLT3(N841I) (kinases [6]; 1 μM; FLT3(N841I)) | % Ctrl, KIT (kinases [7]; 1 μM; KIT) | % Ctrl, KIT-autoinhibited (kinases [7]; 1 μM; KIT-autoinhibited) | Compound | other results
1 | 49 % Ctrl | 17 % Ctrl | 25 % Ctrl | 85 % Ctrl | 57 % Ctrl |  |  |  |  |  |  |  |  |  |  |  |  |  |  |  | CN1CCSCCOc2cc3c(cc2Cl)NC(=O)/C3=C\c2[nH]ccc2C1=O [Ex. 153] | % Ctrl, EGFR(L747-T751del, Sins) (kinases [3]; [12]): 38 % Ctrl; % Ctrl, FLT3(ITD) (kinases [3]; target FLT3(ITD); 1 μM): 0.5 % Ctrl; % Ctrl, FLT3(ITD, D835V) (kinases [3]; target FLT3(ITD, D835V); 1 μM): 0.5 % Ctrl; % Ctrl, FLT3(ITD, F691L) (kinases [3]; target FLT3(ITD, F691L); 1 μM): 0.5 % Ctrl; % Ctrl, ABL1(Q252H)-nonphosphorylated (kinases [4]; [13]): 1.8 % Ctrl; % Ctrl, ABL1(Q252H)-phosphorylated (kinases [4]; [14]): 7.9 % Ctrl; % Ctrl, KIT(V559D, T670I) (kinases [5]; target KIT(V559D, T670I); 1 μM): 0.3 % Ctrl; % Ctrl, FLT3(N841I) (kinases [6]; target FLT3(N841I); 1 μM): 0 % Ctrl; % Ctrl, KIT-autoinhibited (kinases [7]; target KIT-autoinhibited; 1 μM): 14 % Ctrl; % Ctrl, KIT (kinases [7]; target KIT; 1 μM): 0.8 % Ctrl
2 |  |  |  |  |  |  |  |  |  |  |  |  |  |  |  |  |  |  |  |  | Cc1cc2c([nH]1)/C=C1\C(=O)Nc3cnc(cc31)-c1cnn(C)c1CN(C)CCN(C)C2=O [Ex. 172, [3a(4)Z]-6,9,12,14-tetramethyl-9,10,11,12,13,14-hexahydro-17,1-(azenometheno)pyrazolo[4,3-m]dipyrrolo[3,2-f:3′,4′-i][1,4]diazacyclopentadecine-3,8(2H,5H)-dione] | % Ctrl, EGFR(G719C) (kinases [1]; 1 μM; target EGFR(G719C)): 100 % Ctrl; % Ctrl, ABL1(T315I)-nonphosphorylated (kinases [2]; 1 μM; target ABL1(T315I)-nonphosphorylated): 0 % Ctrl; % Ctrl, ABL1(T315I)-phosphorylated (kinases [2]; 1 μM; target ABL1(T315I)-phosphorylated): 1.7 % Ctrl; % Ctrl, EGFR(L747-E749del, A750P) (kinases [3]; 1 μM; target EGFR(L747-E749del, A750P)): 62 % Ctrl; % Ctrl, EGFR(L747-S752del, P753S) (kinases [3]; 1 μM; target EGFR(L747-S752del, P753S)): 52 % Ctrl; % Ctrl, EGFR(L747-T751del, Sins) (kinases [3]; 1 μM; target EGFR(L747-T751del, Sins)): 43 % Ctrl; % Ctrl, FLT3(ITD) (kinases [3]; 1 μM; target FLT3(ITD)): 1.1 % Ctrl; % Ctrl, FLT3(ITD, D835V) (kinases [3]; 1 μM; target FLT3(ITD, D835V)): 0.3 % Ctrl; % Ctrl, FLT3(ITD, F691L) (kinases [3]; 1 μM; target FLT3(ITD, F691L)): 0.3 % Ctrl; % Ctrl, ABL1(Q252H)-nonphosphorylated (kinases [4]; 1 μM; target ABL1(Q252H)-nonphosphorylated): 0.3 % Ctrl; % Ctrl, ABL1(Q252H)-phosphorylated (kinases [4]; 1 μM; target ABL1(Q252H)-phosphorylated): 0.1 % Ctrl; % Ctrl, KIT(V559D, T670I) (kinases [5]; 1 μM; target KIT(V559D, T670I)): 48 % Ctrl; % Ctrl, FLT3(N841I) (kinases [6]; 1 μM; target FLT3(N841I)): 0 % Ctrl; % Ctrl, KIT (kinases [7]; 1 μM; target KIT): 68 % Ctrl; % Ctrl, KIT-autoinhibited (kinases [7]; 1 μM; target KIT-autoinhibited): 100 % Ctrl
3 | 89 % Ctrl | 64 % Ctrl | 34 % Ctrl | 38 % Ctrl | 60 % Ctrl |  |  |  |  |  |  |  |  |  |  |  |  |  |  |  | Cc1cc2c([nH]1)/C=C1\C(=O)Nc3ccc(cc31)-c1c(C)nn(C)c1COCCN(C)C2=O [Ex. 146, [3a(4)Z]-6,9,14,16-tetramethyl-10,11,13,14-tetrahydro-2H-1,17-(ethanediylidene)pyrazolo[4,3-m]dipyrrolo[3,2-f:3′,4′-i][1,4]oxazacyclopentadecine-3,8(5H,9H)-dione] | % Ctrl, EGFR(L747-T751del, Sins) (kinases [3]; [12]): 77 % Ctrl; % Ctrl, FLT3(ITD) (kinases [3]; target FLT3(ITD); 1 μM): 4.7 % Ctrl; % Ctrl, FLT3(ITD, D835V) (kinases [3]; target FLT3(ITD, D835V); 1 μM): 0.3 % Ctrl; % Ctrl, FLT3(ITD, F691L) (kinases [3]; target FLT3(ITD, F691L); 1 μM): 3.2 % Ctrl; % Ctrl, ABL1(Q252H)-nonphosphorylated (kinases [4]; [13]): 74 % Ctrl; % Ctrl, ABL1(Q252H)-phosphorylated (kinases [4]; [14]): 93 % Ctrl; % Ctrl, KIT(V559D, T670I) (kinases [5]; target KIT(V559D, T670I); 1 μM): 75 % Ctrl; % Ctrl, FLT3(N841I) (kinases [6]; target FLT3(N841I); 1 μM): 0 % Ctrl; % Ctrl, KIT-autoinhibited (kinases [7]; target KIT-autoinhibited; 1 μM): 80 % Ctrl; % Ctrl, KIT (kinases [7]; target KIT; 1 μM): 96 % Ctrl
4 |  |  |  |  |  | 97 % Ctrl | 20 % Ctrl | 4.2 % Ctrl | 85 % Ctrl | 93 % Ctrl | 94 % Ctrl | 43 % Ctrl | 5.8 % Ctrl | 10 % Ctrl | 57 % Ctrl | 42 % Ctrl | 71 % Ctrl | 36 % Ctrl | 98 % Ctrl | 97 % Ctrl | Cc1cc2c([nH]1)/C=C1\C(=O)Nc3ccc(cc31)-c1c(noc1C)COCCN(C)C2=O [Ex. 128, [3a(4)Z]-6,9,16-trimethyl-1,11-dihydro-2H,13H-1,17-(ethanediylidene)[1,4]oxazolo[4,3-m]dipyrrolo[3,2-f:3′,4′-i][1,4]oxazacyclopentadecine-3,8(5H,9H)-dione] | 
5 |  |  |  |  |  | 73 % Ctrl | 90 % Ctrl | 64 % Ctrl | 83 % Ctrl | 100 % Ctrl | 59 % Ctrl | 6.9 % Ctrl | 0.45 % Ctrl | 5.8 % Ctrl | 75 % Ctrl | 57 % Ctrl | 96 % Ctrl | 14 % Ctrl | 99 % Ctrl | 100 % Ctrl | Cc1cc2c([nH]1)/C=C1\C(=O)Nc3ccc(cc31)CN(C)C(=O)COCCNC2=O [Ex.111, [17a(18)Z]-2,11-dimethyl-6,7,11,12-tetrahydro-1H-13,15-(ethanediylidene)dipyrrolo[3,2-f:3′,4′-i][1,4,14]oxadiazacyclohexadecine-4,10,17(5H,9H,16H)-trione] | 
6 |  |  |  |  |  | 100 % Ctrl | 92 % Ctrl | 91 % Ctrl | 88 % Ctrl | 98 % Ctrl | 85 % Ctrl | 32 % Ctrl | 4.3 % Ctrl | 40 % Ctrl | 87 % Ctrl | 86 % Ctrl | 100 % Ctrl | 68 % Ctrl | 100 % Ctrl | 78 % Ctrl | Cc1cc2c([nH]1)/C=C1\C(=O)Nc3ccc(cc31)OCCOCCNC2=O [Ex. 129, [16a(17)Z]-2-methyl-6,7,9,10-tetrahydro-1H-12,14-(ethanediylidene)dipyrrolo[3,2-i:3′,4′-l][1,4,7]dioxazacyclopentadecine-4,16(5H,15H)-dione] | 
